Key:
[1] = Fluorescence of free probe prior to binding to a protein tag; format: physicochemical
CLIP protein tags = assay: Fluorescence activation of probe after incubation with corresponding protein tag (CLIP); format: biochemical; details: probe 5 μM, protein tag 10 μM, 37° C., 1 hr
Method: Probes were mixed with corresponding protein tags to obtain mixed samples, in which the final probe concentration was 5 μM, and the final protein tag concentration was 10 μM. The mixed samples were incubated 37° C. for 1 hr, fluorescence spectrophotometer was used to detect the change in fluorescence intensity, and the results are shown in Table 1.
From the quantum yield of probe bound to protein tag, after reacting with the protein tags, the probes of the Examples could be detected to have significant signal enhancement in corresponding excitation transmission channels, the fluorescence activation multiple reached several hundreds to a thousand or more, and the brightness was high, which illustrates that after the probes of the Examples are bound to the protein tags, fluorescence of the probes can be activated, and the probes have good fluorescent molecular switching properties. In contrast, though the fluorescence of the reference probes could also be activated, the quantum yield of activated fluorescence was very low, and the brightness was very poor. In particular, in view of comparison results between probe 98 and reference probe 99, probe 101 and reference probe 102, probe 103 and reference probe 104, probe 105 and reference probe 106, probe 107 and reference probe 108, probe 109 and reference probe 110, probe 111 and reference probe 112, probe 114 and reference probe 115, probe 117 and reference probe 118, probe 120 and reference probe 121 in Table 1, for the same fluorescent dye, when the ligand is connected to the electron donor part of the fluorescent dye, the fluorescence activation brightness of the probe is much higher than the reference probe in which ligand is connected to the electron acceptor part of the fluorescent dye.

[2] = Viscosity responsiveness: fluorescence emission spectra of probes in glycerol and methanol; format: physicochemical; details: for Emission wavelength: excited at maximum excitation wavelength of each probe; for Fluorescence ratio in glycerol to methanol: probe 1×10^−5 M
Procedure, shortened: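 Each probe, from a 1×10^−2 M DMSO stock, was diluted to a final 1×10^−5 M in glycerol and in methanol. Fluorescence emission spectra were then recorded under identical conditions at each probe's maximum excitation wavelength.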

SNAP protein tags = biological target: T1, SNAP protein tags (Homo sapiens, UniProt P16455, A127T/A154D/C150Q/C62A/E30R/G131K/G132T/G153L/K125A/K32I/L33F/M134L/N157G/Q115S/Q116H/R128A/R135S/S151G/S152D/S159E); assay: Fluorescence activation of probe after incubation with corresponding protein tag (SNAP); format: biochemical; details: probe 5 μM, protein tag 10 μM, 37° C., 1 hr
T1 sequence (P16455 1-182 E30R/K32I/L33F/C62A/Q115S/Q116H/K125A/A127T/R128A/G131K/G132T/M134L/R135S/C150Q/S151G/S152D/G153L/A154D/N157G/S159E): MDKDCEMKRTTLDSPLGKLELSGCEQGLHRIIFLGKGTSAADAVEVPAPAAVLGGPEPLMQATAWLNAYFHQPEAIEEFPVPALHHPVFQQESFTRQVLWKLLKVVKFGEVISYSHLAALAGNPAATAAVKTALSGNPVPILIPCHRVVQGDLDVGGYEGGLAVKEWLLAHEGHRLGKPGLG
Procedure, shortened: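 Probe (5 μM final) mixed with CLIP or SNAP protein tag (10 μM final) and incubated 1 hr at 37° C. Fluorescence intensity change measured by fluorescence spectrophotometer, with quantum yield of tag-bound probe determined.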

SMILES	Quantum yield of free probe [1]	Fluorescence activation multiple (CLIP protein tags)	Quantum yield of probe bound to protein tag (CLIP protein tags)	Emission wavelength [2] [nm]	Fluorescence ratio in glycerol to methanol [2]	Fluorescence activation multiple (SNAP protein tags)	Quantum yield of probe bound to protein tag (SNAP protein tags)
CN(CCOC(=O)NCc1ccc(COc2nccc(N)n2)cc1)c1ccc2nc(/C=C(\C#N)C(=O)OC(C)(C)C)oc2c1 [probe 45]	<0.001	958	0.29	603	752		
CN(CCOC(=O)NCc1ccc(COc2nccc(N)n2)cc1)c1ccc(/C=C(\C#N)c2nc3ccccc3o2)cc1 [probe 8]	0.0018	68	0.12	510	320		
CN(CCOC(=O)NCc1ccc(COc2nccc(N)n2)cc1)c1ccc2nc(/C=C(\C#N)C(=O)OC(C)(C)C)sc2c1 [probe 53]	<0.001	579	0.18	625	401		
CN(CCOC(=O)NCc1ccc(COc2nccc(N)n2)cc1)c1cc2c(s1)-c1sc(/C=C(/C#N)C(=O)OC(C)(C)C)cc1C2(C)C [probe 95]	<0.001	553	0.42	645	431		
CN(CCOC(=O)NCc1ccc(COc2nccc(N)n2)cc1)c1ccc(/C=C(\C#N)c2nc3ccccc3s2)cc1 [probe 9]	<0.001	745	0.21	531	851		
CC1=CC(C)(C)N(CCOC(=O)NCc2ccc(COc3nccc(N)n3)cc2)c2ccc(/C=C(\C#N)C(=O)OC(C)(C)C)cc21 [probe 90]	<0.001	541	0.28	575	109		
CN1C(=O)/C(=C\c2cc3ccc(N(C)CCOC(=O)NCc4ccc(COc5nc(N)nc6[nH]cnc56)cc4)cc3s2)N=C1c1ccccc1 [probe 42]	0.0013			600	178	298	0.38
CN1C(=O)/C(=C/c2ccc(N(C)CCOC(=O)NCc3ccc(COc4cc(Cl)nc(N)n4)cc3)cc2)N=C1/C=C/c1ccccc1 [probe 16]	<0.001			580	311	359	0.21
CN(CCO)c1ccc(C#C/C=C(\C#N)C(=O)NCc2ccc(COc3nc(N)nc4[nH]cnc34)cc2)cc1 [Reference Probe 110, reference compound]	<0.001			567	218	23	0.01
CN(CCOC(=O)NCc1ccc(COc2nc(N)nc3[nH]cnc23)cc1)c1ccc2nc(/C=C(\C#N)C(=O)O)sc2c1 [probe 114]	<0.001			625	230	328	0.27
CN(CCOC(=O)NCc1ccc(COc2nc(N)nc3[nH]cnc23)cc1)c1cc2c(s1)-c1sc(C=C(C#N)C#N)cc1[Si]2(C)C [probe 73]	0.0031			680	325	248	0.76
CC1=CC(C)(C)N(CCO)c2ccc(/C=C(\C#N)C(=O)NCc3ccc(COc4nc(N)nc5[nH]cnc45)cc3)cc21 [Reference Probe 106, reference compound]	<0.001			555	215	62	0.01

Source: patent US11209437B2, “Fluorescent probe and preparation method and use thereof” (Fluorescence Diagnosis (shanghai) Biotech Company Ltd., priority 2016, dated 2021)
